Data on 31 molecules can be found in ChEMBL document CHEMBL1141486, “Synthesis and biological evaluation of novel 1,3,5-triazine derivatives as antimicrobial agents” (Bioorg Med Chem Lett, 2008).

pIC50: −log10 of the molar value. Calls of active or inactive are those of the source. No cut-off for these calls is given here.

As usually defined, the pIC50 is the IC50 on a negative log10 scale, so that one unit is a factor of ten. Read a high pIC50 as a small IC50.

Data set [1] can be described thus: Effect on disruption of membrane integrity using […]-2-oleoyl-sn-glycero-3-[phospho-rac-(1-glycerol)] lipid vesicle at 90 uM by calcein dye leakage assay. The data set is classed as functional.
The subject of the next data set is Bacillus subtilis. The experiment in a line: Antibacterial activity against Bacillus subtilis […] by microdilution method. Format: functional, organism-based. Background: Broth dilution looks for growth in wells or tubes with falling amounts of substance.
Data set [2] can be described thus: Hemolytic activity in red blood cells at 100 uM. The data set is classed as ADME, cell-based, Erythrocyte. The note with it: read-out: Activity.
The subject of the next data set is Acinetobacter baumannii. The experiment in a line: Antibacterial activity against Acinetobacter baumannii ATCC BAA747 by microdilution method. The data set is classed as functional, organism-based.
The next data set has as its system Staphylococcus aureus. Briefly: Antibacterial activity against multi-drug resistant Staphylococcus aureus ATCC BAA44 by microdilution method. The data set is classed as functional, organism-based.
The next data set relates to Bacillus anthracis. Briefly: Antibacterial activity against Bacillus anthracis by microdilution method. Format: functional, organism-based.
In the next data set the test system is Escherichia coli. The experiment in a line: Antibacterial activity against ampicillin and streptomycin-resistant Escherichia coli D31 by microdilution method. The data set is classed as functional, organism-based.
Data set [3] in a line: Hemolytic activity in red blood cells. Format: ADME, cell-based, Erythrocyte. The note with it: read-out: HD50 (the source's name).
The nature of data set [4]: Effect on disruption of membrane integrity using […]-2-oleoyl-sn-glycero-3-[phospho-rac-(1-glycerol)] lipid vesicle at 50 uM by calcein dye leakage assay. The data set is classed as functional.
The nature of data set [5]: Effect on disruption of membrane integrity using […]-2-oleoyl-sn-glycero-3-[phospho-rac-(1-glycerol)] lipid vesicle at 70 uM by calcein dye leakage assay. Format: functional.

For `CN(C)c1nc(NC2CCCCCC2)nc(NC23CC4CC(CC(C4)C2)C3)n1`, the outcome in data set [1] was inactive. In addition, in the data set on Bacillus subtilis, the pIC50 is less than 4.40.
Consider `NCCCNc1nc(NC2CCCCCC2)nc(NC23CC4CC(CC(C4)C2)C3)n1`, for which the pIC50 in the data set with Bacillus subtilis is 5.33.
`CCCCN(CCCC)CCCNc1nc(NC23CC4CC(CC(C4)C2)C3)nc(NC23CC4CC(CC(C4)C2)C3)n1` showed a pIC50 in the data set on Bacillus subtilis of 4.41.
In turn, `CCN(CC)CCCNc1nc(NCc2ccccc2)nc(NC23CC4CC(CC(C4)C2)C3)n1` showed a pIC50 with Bacillus subtilis of 4.97.
`CCCCN(CCCC)CCCNc1nc(NC2CCC2)nc(NC23CC4CC(CC(C4)C2)C3)n1`: the pIC50 in the data set with Bacillus subtilis was 5.10.
Same read-out and setting: the figure for `CCN(CC)CCCNc1nc(NCCCc2ccccc2)nc(NC23CC4CC(CC(C4)C2)C3)n1` is 5.43; for `CCCCN(CCCC)CCCNc1nc(NC2CCCC2)nc(NC23CC4CC(CC(C4)C2)C3)n1` it is 5.34.
Same read-out and setting: as for `CCCCN(CCCC)CCCNc1nc(NCC2CCCCC2)nc(NC23CC4CC(CC(C4)C2)C3)n1`, the figure is 5.26.
`CCCCN(CCCC)CCCNc1nc(NC2CCCCC2)nc(NC23CC4CC(CC(C4)C2)C3)n1`: the hemolysis at 100 µM in data set [2] is less than 10%.
Turning to `CN(C)CCCNc1nc(NC2CCCCCC2)nc(NC23CC4CC(CC(C4)C2)C3)n1`, in the data set with Bacillus subtilis, the negative-log IC50 (pIC50) is 5.24.
As for `CCCCN(CCCC)CCCNc1nc(NCCCN(CC)CC)nc(NC23CC4CC(CC(C4)C2)C3)n1`, in data set [2], the hemolysis at 100 µM was less than 10%.
For `CN1CCCC1CCNc1nc(NC2CCCCCC2)nc(NC23CC4CC(CC(C4)C2)C3)n1` (centres undefined), the pIC50 in the data set with Bacillus subtilis is 5.23.
Same read-out and setting: the figure for `C[N+](C)(C)CCNc1nc(NC2CCCCCC2)nc(NC23CC4CC(CC(C4)C2)C3)n1` is 5.28; for `CCCCN(CCCC)CCCNc1nc(NC23CC4CC(CC(C4)C2)C3)nc(N(CCCC)CCCC)n1` it is 5.36.
With `CCCCN(CCCC)CCCNc1nc(NCCCN(CCCC)CCCC)nc(NC23CC4CC(CC(C4)C2)C3)n1`, the hemolysis at 100 µM in data set [2] was less than 10%.
Regarding `CCCCN(CCCC)CCCNc1nc(NC2CC2)nc(NC23CC4CC(CC(C4)C2)C3)n1`, the pIC50 in the data set with Bacillus subtilis was 4.79.
Take `CCCCN(CCCC)CCCNc1nc(NC2CCCCCCC2)nc(NC23CC4CC(CC(C4)C2)C3)n1`: the pIC50 with Acinetobacter baumannii was 4.08; in the data set with Staphylococcus aureus, 4.15; in the data set with Bacillus anthracis, 4.07; in the data set on Escherichia coli, 3.26; in the data set with Bacillus subtilis, 5.70. For the same molecule, the HC50 in data set [3] is greater than 3.5 mM.
`CCCCN(CCCC)CCCNc1nc(NCCCN2CCCC(C)C2)nc(NC23CC4CC(CC(C4)C2)C3)n1` (centres undefined): the hemolysis at 100 µM in [2] was less than 10%.
For `CCN(CC)CCCNc1nc(NCCc2ccc(OC)cc2)nc(NC23CC4CC(CC(C4)C2)C3)n1`, the hemolysis at 100 µM in data set [2] was less than 10%.
As to `CCN(CC)CCCNc1nc(NCc2ccc3c(c2)OCO3)nc(NC23CC4CC(CC(C4)C2)C3)n1`, the pIC50 in the data set with Bacillus subtilis was 5.46.
The same measure, in the same setting: the figure for `CCCCN(CCCC)CCCNc1nc(NC2CC3CCC2C3)nc(NC23CC4CC(CC(C4)C2)C3)n1` (centres undefined) is 5.12; for `CN(C)CCNc1nc(NC2CCCCCC2)nc(NC23CC4CC(CC(C4)C2)C3)n1` it is 5.15.
Same read-out and setting: as for `CCCCN(CCCC)CCCNc1nc(NC23CC4CC(CC(C4)C2)C3)nc(N(CCC)CC2CC2)n1`, the figure is 5.30.
The same measure, in the same setting: as for `CCCCN(CCCC)CCCNc1nc(NC2CCCCCCCCCCC2)nc(NC23CC4CC(CC(C4)C2)C3)n1`, the figure is 4.80.
Take `NCCNc1nc(NC2CCCCCC2)nc(NC23CC4CC(CC(C4)C2)C3)n1`: the pIC50 in the data set with Bacillus subtilis was 5.23.
On the same count and under the same terms, the figure for `CCN(CC)CCNc1nc(NC2CCCCCC2)nc(NC23CC4CC(CC(C4)C2)C3)n1` is 5.25.
As to `CCCCN(CCCC)CCCNc1nc(NCCc2ccc(OC)cc2)nc(NC23CC4CC(CC(C4)C2)C3)n1`, in data set [2], the hemolysis at 100 µM was less than 10%.
With `CCCCN(CCCC)CCCNc1nc(NC2CCCCCC2)nc(NC23CC4CC(CC(C4)C2)C3)n1`, the pIC50 was 4.28 with Acinetobacter baumannii; 4.17 with Staphylococcus aureus; 4.39 with Bacillus anthracis; 3.21 with Escherichia coli; 5.60 with Bacillus subtilis. The HC50 in data set [3] is greater than 3.5 mM. Further, the hemolysis at 100 µM in [2] was less than 10%.
As for `CCN(CC)CCCNc1nc(NCCc2ccccc2)nc(NC23CC4CC(CC(C4)C2)C3)n1`, in [4], the Activity was 100%. Besides, the negative-log IC50 (pIC50) is 4.66 in the data set with Acinetobacter baumannii; 4.77 in the data set on Staphylococcus aureus; 4.68 with Bacillus anthracis; 3.70 with Escherichia coli; 5.57 in the data set with Bacillus subtilis. In addition, the HC50 in data set [3] is greater than 3.5 mM.
`CCN(CC)CCCNc1nc(NC2CCCCCC2)nc(NC23CC4CC(CC(C4)C2)C3)n1`: the hemolysis at 100 µM in [2] was less than 10%.
With `CC1(C)S[C@@H]2[C@H](NC(=O)[C@H](N)c3ccccc3)C(=O)N2[C@H]1C(=O)O`, the outcome in data set [5] was inactive.
